This note sets out measurements from PubChem BioAssay (NCI).

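Where inhibition never reached the appropriate level, the endpoint shown equals the highest concentration tested. Otherwise, values were interpolated linearly from a five-concentration, 48-hour dose response in 96-well plates. TGI: total growth inhibition.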

Among the test systems are ACHN renal; HCT-15 colon; HS 578T breast; IGROV1 ovarian; KM12 colon; LOX IMVI melanoma; MALME-3M melanoma; NCI-H522 lung; OVCAR-3 ovarian; OVCAR-8 ovarian; SK-MEL-2 melanoma; SK-MEL-28 melanoma; SK-MEL-5 melanoma; SW-620 colon; TK-10 renal; UACC-257 melanoma; UO-31 renal; CCRF-CEM leukemia; SK-OV-3 ovarian; HOP-92 NSCLC.
Common to all, as to assay: NCI-60 cell line screen, 48 h

Turning to `CCCCCCC1OC23OC1CCC2C(O)CCC3O` (stereo unspecified), the TGI with ACHN renal, in the assay on HCT-15 colon, in the assay with HS 578T breast, with IGROV1 ovarian, in the assay on KM12 colon and with LOX IMVI melanoma was more than 100 µM throughout. Besides, the TGI with MALME-3M melanoma, in the assay on NCI-H522 lung, in the assay with OVCAR-3 ovarian, in the assay on OVCAR-8 ovarian, in the assay with SK-MEL-2 melanoma and in the assay on SK-MEL-28 melanoma was more than 100 µM each time. Further, the TGI in the assay with SK-MEL-5 melanoma, with SW-620 colon, with TK-10 renal, in the assay with UACC-257 melanoma and with UO-31 renal was more than 100 µM in each case.
With `CCN(CC)c1ccc(Cl)c2c1C(O)(C(C)C)C2(C)C` (stereo unspecified), the TGI in the assay on ACHN renal is 31.3 µM; in the assay with CCRF-CEM leukemia, 39.9 µM; in the assay with HCT-15 colon, 44.9 µM; in the assay on IGROV1 ovarian it was 27.8 µM; in the assay with KM12 colon it was 28.4 µM; in the assay with LOX IMVI melanoma it was 35.1 µM. Also, the TGI in the assay on MALME-3M melanoma was found to be 27.4 µM; in the assay on NCI-H522 lung it was 29.9 µM; with OVCAR-3 ovarian, 25.2 µM; with OVCAR-8 ovarian it was 33.4 µM; with SK-MEL-2 melanoma it was 29.4 µM; in the assay with SK-MEL-28 melanoma, 37.1 µM. Further, the TGI came to 28.8 µM with SK-MEL-5 melanoma; 29.3 µM in the assay on SK-OV-3 ovarian; 32.6 µM with SW-620 colon; 30.2 µM in the assay with TK-10 renal; 27.6 µM with UACC-257 melanoma; 32 µM with UO-31 renal.
`COC(=O)/C=C1\C(CO[Si](C)(C)C(C)(C)C)OC(n2ccc(=O)[nH]c2=O)C1O` (stereo unspecified): the TGI was more than 65.5 µM with ACHN renal; 26.1 µM with CCRF-CEM leukemia; 35.2 µM with HCT-15 colon; 44 µM with HOP-92 NSCLC; more than 75.2 µM in the assay on IGROV1 ovarian; more than 39.4 µM in the assay on KM12 colon. In addition, the TGI with LOX IMVI melanoma was 15.5 µM; in the assay on OVCAR-3 ovarian, 54.5 µM; with OVCAR-8 ovarian, more than 100 µM; in the assay with SK-MEL-2 melanoma, 21.1 µM; with SK-MEL-28 melanoma, 21.4 µM; in the assay on SK-MEL-5 melanoma, 21.7 µM. The TGI was more than 100 µM in the assay with SW-620 colon, more than 100 µM in the assay on TK-10 renal, more than 40.4 µM in the assay with UACC-257 melanoma and 29.6 µM with UO-31 renal.
Turning to `CCN(C(=O)N[C@@H](CC(C)C)C(=O)NCC(=O)OC)c1ccccc1`, the TGI in the assay with ACHN renal, in the assay with CCRF-CEM leukemia, in the assay with HCT-15 colon, in the assay on HOP-92 NSCLC, with IGROV1 ovarian and in the assay on KM12 colon was more than 100 µM in each case. The TGI is more than 100 µM in the assay with LOX IMVI melanoma; 51.1 µM with MALME-3M melanoma; more than 100 µM with NCI-H522 lung; more than 100 µM in the assay with OVCAR-3 ovarian; more than 100 µM with OVCAR-8 ovarian; more than 100 µM in the assay with SK-MEL-2 melanoma. Further, the TGI is more than 100 µM with SK-MEL-28 melanoma; more than 100 µM with SK-MEL-5 melanoma; more than 100 µM with SK-OV-3 ovarian; more than 100 µM in the assay with SW-620 colon; more than 100 µM in the assay on TK-10 renal; 61.9 µM in the assay on UACC-257 melanoma. In the assay with UO-31 renal, this compound gave a TGI of more than 100 µM.
In the case of `CC(=O)Nc1nc2c(=O)c3ccccc3sc2s1`, the TGI with ACHN renal, in the assay on CCRF-CEM leukemia, with HCT-15 colon, in the assay with HS 578T breast, in the assay with IGROV1 ovarian and with KM12 colon was more than 100 µM each time. Moreover, the TGI in the assay with OVCAR-3 ovarian, with OVCAR-8 ovarian, in the assay with SK-MEL-2 melanoma, in the assay on SK-MEL-5 melanoma, in the assay with TK-10 renal and in the assay with UACC-257 melanoma was more than 100 µM each time. The TGI in the assay with UO-31 renal is more than 100 µM.
For the compound `O=C(O)c1ccccc1/C=C1\Cc2cc3c(cc2C1=O)CCC3`, the TGI is more than 100 µM with ACHN renal; 44.2 µM with CCRF-CEM leukemia; 74.8 µM with HCT-15 colon; more than 100 µM with IGROV1 ovarian; more than 100 µM in the assay with KM12 colon; 31.4 µM in the assay with LOX IMVI melanoma. In addition, the TGI was more than 100 µM in the assay with MALME-3M melanoma; 45.6 µM in the assay with NCI-H522 lung; more than 100 µM with OVCAR-3 ovarian; more than 100 µM in the assay on OVCAR-8 ovarian; 55.4 µM in the assay with SK-MEL-2 melanoma; more than 100 µM in the assay with SK-MEL-28 melanoma. Moreover, the TGI with SK-MEL-5 melanoma was 38.1 µM; with SK-OV-3 ovarian it was more than 100 µM; in the assay on SW-620 colon it was 60.4 µM; in the assay with TK-10 renal it was 65.8 µM; with UACC-257 melanoma, 79.2 µM; with UO-31 renal, more than 100 µM.
Consider `Nc1nccc(NCC2(CO)CC(CCc3ccccc3)C2)n1` (stereo unspecified), for which the TGI in the assay with ACHN renal came to 32.6 µM; in the assay on CCRF-CEM leukemia, 55.5 µM; in the assay with HCT-15 colon it was 36.1 µM; in the assay on HS 578T breast it was 52.9 µM; in the assay with IGROV1 ovarian, 33.3 µM; with KM12 colon it was 41.7 µM. Besides, the TGI is 34.4 µM with LOX IMVI melanoma; 29.1 µM with MALME-3M melanoma; 26 µM in the assay on NCI-H522 lung; 38.9 µM in the assay with OVCAR-3 ovarian; 69.4 µM in the assay on OVCAR-8 ovarian; 32.8 µM in the assay on SK-MEL-2 melanoma. Besides, the TGI in the assay on SK-MEL-28 melanoma was 36.5 µM; in the assay on SK-MEL-5 melanoma, 16.9 µM; in the assay with SW-620 colon, 43.7 µM; with TK-10 renal, 25.5 µM; in the assay with UACC-257 melanoma it was 37.9 µM; with UO-31 renal, 32.3 µM.
Turning to `COc1cc2c(cc1OCCCOc1cc3c(cc1OC)C(=O)N1CCC[C@H]1C(=O)N3)N=C[C@@H]1CCCN1C2=O`, the TGI was 38.5 µM in the assay on ACHN renal; more than 100 µM with HCT-15 colon; 84.4 µM in the assay with HS 578T breast; 33.4 µM in the assay on IGROV1 ovarian; 67 µM in the assay with KM12 colon; 18.7 µM with LOX IMVI melanoma. Also, the TGI in the assay with MALME-3M melanoma is 29.8 µM; in the assay on NCI-H522 lung, 6.34 µM; with OVCAR-3 ovarian, 54 µM; in the assay on OVCAR-8 ovarian it was more than 100 µM; in the assay with SK-MEL-2 melanoma, 69.6 µM; in the assay with SK-MEL-28 melanoma it was 46.8 µM. Besides, the TGI is 26.8 µM in the assay on SK-MEL-5 melanoma; 56.5 µM in the assay on SW-620 colon; 84.5 µM in the assay on TK-10 renal; 50 µM in the assay with UACC-257 melanoma; 40.5 µM in the assay on UO-31 renal.
